According to paper PMC9606187, “Dual HDAC/BRD4 Inhibitors Relieves Neuropathic Pain by Attenuating Inflammatory Response in Microglia After Spared Nerve Injury” (Neurotherapeutics, 2022):

Legend:
[1] = target: T1, Recombinant Human Bromodomain containing protein 4, bromodomain 1 (BRD4-BD1) (Homo sapiens, UniProt O60885); assay: AlphaScreen bromodomain binding assay (Reaction Biology), BRD4-1
T1 construct: bromodomain 1 (aa 44–170); purchased Reaction Biology (RBC) RD-11–140; host or cells: E. coli
Description: The reader assay is a binding assay using AlphaScreen technology […] assay and was performed by Reaction Biology (www.reactionbiology.com). The biotinylated peptide binding to the reader domain of His-tagged protein is monitored by the singlet oxygen transfer from the Streptavidin-coated donor beads to the AlphaScreen Ni-chelate acceptor beads.
Reaction buffer: 50 mM Hepes, pH7.5, 100 mM NaCl, 0.05% CHAPS, 0.1% BSA, and 1% DMSO (the final DMSO concentration may differ depending on compound stock and test concentrations).
Bromodomain: BRD4-1: RBC Cat# RD-11–140: Recombinant Human Bromodomain containing protein 4, bromodomain 1 (aa 44–170; Genbank Accession # NM_058243), expressed in E. coli with N-terminal His-tag. MW = 17.8 kDa; BRD4-2: RBC Cat# RD-11–141: Recombinant Human Bromodomain containing protein 4, bromodomain 2 (aa 349–460;Genbank Accession # NM_058243), expressed in E. coli with N-terminal His-tag. MW = 15.7 kDa. Ligand (C-term-Biotin): Histone H4 peptide (1–21) K5/8/12/16Ac-Biotin. Detection beads: PerkinElmer: Donor beads: Streptavidin-coated donor beads; Acceptor beads: AlphaScreen Ni acceptor beads.
Reaction procedure: • Deliver 2.5X BRD in wells of reaction plate except No BRD control wells. Add buffer instead. • Deliver compounds in 100% DMSO into the BRD mixture by Acoustic technology (Echo550; nanoliter range). […]

SNI mice = assay: Hole-board test; format: in vivo; conditions: 50 µM i.n., vs vehicle-treated SNI mice
Description: The spontaneous locomotor behavior was evaluated by using the hole-board test. Movements of the animal on the plane represent the spontaneous mobility, and the head-dips in the holes by the mice represent the exploratory activity.

[2] = Intrinsic fluorescence of the compound in spinal cord after i.n. delivery; format: in vivo, mice
Text: On postsurgical day 14, animals were perfused transcardially with 4% paraformaldehyde in 0.1 M phosphate buffer (PBS, pH 7.4). After perfusion, lumbar spinal cord was quickly removed and processed as previously described. Four animals per groups were used for this analysis. […] Primary antibody used was IBA1 (1:100; Santa Cruz Biotechnology Cat# sc-32725, RRID:AB_667733). […] A Leica DM6000B fluorescence microscope equipped with a DFC350FX digital camera with appropriate excitation and emission filters for each fluorophore was used to acquire representative images. […] The immunofluorescence intensity was calculated by ImageJ (Wayne Rasband, National Institute of Health, USA).
Co-localization of two different labels was measured using EzColocalization plugin (ImageJ). The extent of co-localization was determined by calculating the Mander’s overlap coefficient (MOC) and the Pearson’s correlation coefficient (PCC). […] PCC quantify the correlation between individual fluorophores considering their intensities. PCC is characterized by determined value range: −1, which indicate anticolocalization; +1, which indicates colocalization; 0, which indicates there is no colocalization.

IBA1 (microglia marker) = assay: Immunofluorescence of lumbar spinal cord, IBA1; format: in vivo; conditions: lumbar spinal cord of SNI mice, day 14
Description: On postsurgical day 14, animals were perfused transcardially with 4% paraformaldehyde in 0.1 M phosphate buffer (PBS, pH 7.4). After perfusion, lumbar spinal cord was quickly removed and processed as previously described. Four animals per groups were used for this analysis. […] Primary antibody used was IBA1 (1:100; Santa Cruz Biotechnology Cat# sc-32725, RRID:AB_667733). After rinsing in PBS containing 0.01% Triton-X-100, sections were incubated in secondary antibodies labeled with Invitrogen Alexa Fluor 488 (490–525, 1:400; Thermo Fisher Scientific), Invitrogen Alexa Fluor 568 (578–603, 1:400; Thermo Fisher Scientific), Cruz Fluor 594 (592–614, 1:400; Santa Cruz Biotechnology) at room temperature for 2 h. Sections were coverslipped using Vectorshield mounting medium (Vector Laboratories, Burlingame, CA). A Leica DM6000B fluorescence microscope equipped with a DFC350FX digital camera with appropriate excitation and emission filters for each fluorophore was used to acquire representative images. Images were acquired with × 5 to × 40 objectives using a digital camera. The immunofluorescence intensity was calculated by ImageJ (Wayne Rasband, National Institute of Health, USA).

iNOS (NOS2) = assay: Western blot of lumbar spinal cord, iNOS; format: in vivo, mice; conditions: SNI ipsilateral side, day 7 and 14
Description: (§1) The lumbar spinal cord was removed 7 and 14 days after surgery and 90 min after the intranasal administration of SUM52, corresponding to the peack of the effect. Samples (n = 4 for groups) were homogenized in a homogenization buffer and processed as previously described. Protein samples (40 µg of protein/sample) were separated on 10% SDS-PAGE and transferred onto nitrocellulose membranes (120 min at 100 V) using standard procedures. Membranes were blocked in PBST (PBS containing 0.1% Tween) containing 5% nonfat dry milk for 120 min. […] Blots were then extensively washed and developed using enhanced chemiluminescence detection system (Pierce, Milan, Italy) and signal intensity (pixels/mm^2) quantified (ImageJ, NIH). […] For each sample, the signal intensity was normalized to that of total protein stained by Ponceau S and the acquired images were quantified using Image Lab software. […]

[3] = system: p65 subunit of NF-kB (phosphorylated); assay: Western blot of lumbar spinal cord, p-NF-kB p65; format: in vivo, mice; conditions: SNI ipsilateral side, day 7 and 14
Description: as §1

[4] = system: MAPK p38 (phosphorylated); assay: Western blot of lumbar spinal cord, p-p38; format: in vivo, mice; conditions: SNI ipsilateral side, day 7 and 14
Description: as §1

Cc1nnc2n1-c1ccccc1C(c1ccccc1)=N[C@H]2CC(=O)NCCCCCCC(=O)NO [SUM52, (S)-N-hydroxy-7-(2-(1-methyl-6-phenyl-4H-benzo[f][1,2,4]triazolo[4,3-a][1,4]diazepin-4-yl)acetamido)heptanamide]
IC50 [1]: 758 nM | exploratory activity (hole board test) (SNI mice): no alteration | spontaneous mobility (hole board test) (SNI mice): no alteration | distribution to spinal cord (intrinsic fluorescence) ([2]; after i.n. delivery, vs vehicle-treated mice): able to reach the spinal cord and diffuse into the tissue | intrinsic fluorescence in microglial cells ([2]; spinal cord sections of SNI mice, IBA1 co-staining): detected in IBA1 positive microglial cells | IBA1 immunostaining (IBA1 (microglia marker)): significantly reduced | NOS2 (iNOS) expression (iNOS (NOS2)): reduced NOS2 overactivation | phosphorylation of the p65 subunit of NF-kB [3]: robustly reduced by SUM52 up to baseline values | phosphorylation of MAPK p38 [4]: drastically reduced
